Biological target: β2AR (human β2 adrenergic receptor) (Homo sapiens, UniProt P07550)
Assay: radioligand binding
Conditions: labelled compound; antagonist; detergent micelles (PPM or DDM, CMC+0.2 wt%); room temperature

Chain of β2AR (human β2 adrenergic receptor) (P07550 whole entry): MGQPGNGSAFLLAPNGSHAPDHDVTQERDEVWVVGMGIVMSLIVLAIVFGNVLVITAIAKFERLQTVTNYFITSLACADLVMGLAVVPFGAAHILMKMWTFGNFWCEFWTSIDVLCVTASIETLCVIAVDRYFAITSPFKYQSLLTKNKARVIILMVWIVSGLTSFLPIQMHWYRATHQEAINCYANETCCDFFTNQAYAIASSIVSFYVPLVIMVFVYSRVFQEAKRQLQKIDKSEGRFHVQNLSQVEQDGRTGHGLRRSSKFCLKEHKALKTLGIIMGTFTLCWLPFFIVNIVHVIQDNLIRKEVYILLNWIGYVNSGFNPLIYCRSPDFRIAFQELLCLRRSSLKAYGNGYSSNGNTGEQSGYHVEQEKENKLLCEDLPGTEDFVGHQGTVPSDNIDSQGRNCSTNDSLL

CCCc1ccccc1OCC(O)CNC(C)C (stereo not shown) [[3H]-dihydroalprenolol]
radioligand binding: receptor ability to bind the radio-labelled antagonist ([^3H]-dihydroalprenolol (DHA))

Source: publication PMC7239035 (Chemistry, an Asian journal, 2019)
